Test results published in patent publication US20040023922A1, “Lipids for modulating immune response” (priority 2000, published 2004).
“And” between values parts separate entries of the source, which are not always exact repeats. Equal entries are not always repeated. Where two headings read alike, the source gives them in different places.

Key:
Female Balb/c mice = test: Adjuvanticity of lipids: serum anti-KLH IgA, IgG, IgM ELISA (Example 7); assay type: in vivo; conditions: for Day 7 Results IgA, score as multiples of the control response / Day 7 Results IgG, score as multiples of the control response / Day 7 Results IgM, score as multiples of the control response: serum day 7 after booster; for Day 7 Results IgA, score as multiples of the control response: 5 μl lipid + 45 μl saline + 50 μl KLH (2 mg/ml), week 0 and week 2; for Day 7 Results IgA, score as multiples of the control response / Day 7 Results IgG, score as multiples of the control response / Day 7 Results IgM, score as multiples of the control response / Day 21 Results IgA, score as multiples of the control response / Day 21 Results IgG, score as multiples of the control response / Day 21 Results IgM, score as multiples of the control response: control KLH + Saline = 1; for Day 21 Results IgA, score as multiples of the control response / Day 21 Results IgG, score as multiples of the control response / Day 21 Results IgM, score as multiples of the control response: serum day 21 after booster; for Ranking Total: sum of the six IgA, IgG, IgM scores of day 7 and day 21, control KLH + Saline = 6
Method: The objective of this study was to investigate the adjuvanticity of 19 different lipids.
Female Balb/c mice, 6-8 weeks and weighing about 20-22 gms were used and maintained on a normal mouse diet throughout the study.
There were 22 groups of mice marked alphabetically from A-V. Group A (8 mice) was the negative control (KLH+Saline), Group B (8 mice) was the positive control (KLH+IFA). Groups C-V were the experimental groups containing 6 mice each. 100 μl of antigen preparation comprising of 5 μl lipid+45 μl saline+50 μl (2 mg/ml KLH) was administered to 20 groups of 6 mice each, on week 0 followed by a boost on week 2.
On day 7 and day 21 after the booster dose, the mice were tail bled, the serum separated, aliquoted and stored at 4° C.
The specific anti-KLH IgG and IgM antibody content of each individual serum sample was determined in an established ELISA assay and standardised against a positive control antiserum obtained by hyperimmunisation of mice with KLH (100 μg) in Freund's incomplete adjuvant. Plates were coated with KLH at 2 μg/ml and incubated with four twofold dilutions of samples (100 μl) at 37° C. for 2 hours. The initial dilution of serum samples was 1:50 for IgA assay and 1:100 for IgG and IgM assays. […] IgA and IgM were used at 1:1000 and IgG at 1:2000 for 2 hours at 37° C. The results were expressed as antibody units calculated from the standard curve obtained from pooled immune mouse serum given an arbitrary antibody value of 100,000 IgA units/ml and 1×10^6 IgG and IgM units/ml. The standard curve was diluted from 1:100 to 1:3200 for IgA, 1:4000 to 1:256,000 for IgG and 1:1000 to 1:32000 for IgM samples. The value for each sample dilution falling on standard curve was calculated and the mean taken as the value for the sample.
Results are given in the form of histograms (FIGS. 9 to 14), plotting the Ig response (units/ml) against the trial grouping. […] The number signifies multiples of the control response.

mesenteric lymph nodes = assay type: in vivo, mice

SMILES	Day 7 Results IgA, score as multiples of the control response (Female Balb/c mice)	Day 7 Results IgG, score as multiples of the control response (Female Balb/c mice)	Day 7 Results IgM, score as multiples of the control response (Female Balb/c mice)	Day 21 Results IgA, score as multiples of the control response (Female Balb/c mice)	Day 21 Results IgG, score as multiples of the control response (Female Balb/c mice)	Day 21 Results IgM, score as multiples of the control response (Female Balb/c mice)	Ranking Total (Female Balb/c mice)	Proliferative cellular response of mesenteric lymph nodes to KLH compared to control (FIG. 15) (mesenteric lymph nodes; mouse, in vivo)	Ranking Total (Female Balb/c mice; listed as TpaL)	Proliferative cellular response of mesenteric lymph nodes to KLH compared to control (FIG. 15) (mesenteric lymph nodes; 40 μg on SiO2 particles in 0.2 ml PBS per mouse per day intragastrically, days 1-3, KLH + cholera toxin days 7 and 14, killed day 21, control KLH+CT)
CCCCCCCCCCCCCC(=O)OC[C@H](COP(=O)(O)O)OC(=O)CCCCCCCCCCCCC [PAM, L-α-Phosphatidicacid, dimyristoyl]	4	5	1	1	6	1	18	–	–	–
CCCCCCCCCCCCCCCC(=O)N[C@@H](CO[C@@H]1O[C@H](CO)[C@@H](O)[C@H](O)[C@H]1O)[C@H](O)CCCCCCCCCCCCCCC [PC, N-Palmitoyl dihydroglucocerebroside]	33	2	3	3	12	3	56	–	–	–
CCCCCCCCCCCCCCCCC(=O)OC[C@H](COP(=O)([O-])OCC[N+](C)(C)C)OC(=O)CCCCCCCCCCCCCCCC [PCH, L-α-Phosphatidylcholine, diheptadecanoyl]	18	10	1	2	10	2	43	–	–	–
CCCCCCCCCCCCCCC(=O)OC[C@H](COP(=O)([O-])OCC[N+](C)(C)C)OC(=O)CCCCCCCCCCCCCC [PCP, L-α-Phosphatidylcholine, dipentadecanoyl]	9	5	2	2	3	1	22	–	–	–
CCCCCCCCCCCCCCCCC(=O)OC[C@H](COP(=O)(O)OCCN)OC(=O)CCCCCCCCCCCCCCCC [PEH, L-α-Phosphatidylethanolamine, diheptadecanoyl]	4	12	2	2	7	1	28	–	–	–
CCCCCCCCCCCCCC(=O)OC[C@H](COP(=O)(O)OCCN)OC(=O)CCCCCCCCCCCCC [PEM, L-α-Phosphatidylethanolamine, dimyristoyl]	17	7	1	2	6	2	35	–	–	–
CCCCCCCCCCCCCCCCCC(=O)OC[C@H](COP(=O)(O)OCCN)OC(=O)CCCCCCCCCCCCCCCCC [PES, L-α-Phosphatidylethanolamine, distearoyl]	15	6	1	2	7	1	32	–	–	–
CCCCCCCCCCCCC/C=C/[C@@H](O)[C@H](CO)NC(=O)CCCCCCCCCCCCCCC [PS, N-Palmitoyl-d-sphigosine]	35	3	2	4	19	1	64	–	–	–
CCCCCCCC/C=C\CCCCCCCC(=O)OC[C@H](COP(=O)([O-])OCC[N+](C)(C)C)OC(=O)CCCCCCC/C=C\CCCCCCCC [Phosphatidycholine, dioleoyl, Phosphatidylcholine, dioleoyl]	–	–	–	–	–	–	–	strong proliferative response	–	–
CCCCCCCCCCCCCC(=O)OCC(COC(=O)CCCCCCCCCCCCC)OC(=O)CCCCCCCCCCCCC [TM, Trymyristin]	6	4	1	1	3	1	17 and 16	–	–	–
CCCCCCCCCCCCCCCC(=O)OCC(COC(=O)CCCCCCCCCCCCCCC)OC(=O)CCCCCCCCCCCCCCC [TPaL, Tripalmitin]	3	4	1	1	6	1	16	–	15	–
CCCCCCCCCCCCCCC(=O)OCC(COC(=O)CCCCCCCCCCCCCC)OC(=O)CCCCCCCCCCCCCC [TPeN, Tripentadecanoin]	11	4	2	3	9	2	31	–	–	–
CC/C=C\C/C=C\C/C=C\CCCCCCCC(=O)OCC(COC(=O)CCCCCCC/C=C\C/C=C\C/C=C\CC)OC(=O)CCCCCCC/C=C\C/C=C\C/C=C\CC [Trilinolenin]	–	–	–	–	–	–	–	–	–	strong proliferative response
